Consider three compounds from patent US10654860B2, “Tricyclic rho kinase inhibitors” (BRISTOL-MYERS SQUIBB COMPANY, priority 2016, dated 2020).

pIC50: −log10 of the molar value. Like-named read-outs stand apart in the source and are kept apart here.

For experiment [1], the system named is spontaneously hypertensive rat, renal hypertensive rat and deoxycortisone acetate salt hypertensive rat models. The note with it: cited from earlier work.
The test system of a further experiment is neointimal formation. The note with it: rats, balloon injury model; cited from earlier work.
For experiment [2], the system named is congestive heart failure in Dahl salt-sensitive rats. The note with it: cited from earlier work.
Experiment [3] has as its system IL-1 beta-induced coronary stenosis. The following applies: long term treatment, porcine model; cited from earlier work.
The next experiment concerns rat stroke model. The following applies: cited from earlier work.
Another experiment addresses ROCK2 (Homo sapiens (Human), UniProt O75116). The experiment in a line: ROCK2 kinase inhibition assay (LABCHIP peptide phosphorylation). The experiment is classed as biochemical. The note with it: 5 μM ATP, 1.5 μM peptide substrate. As for the experimental part:
The effectiveness of compounds of the present invention as ROCK inhibitors can be determined in a 30 μL, assay containing 20 mM HEPES, pH 7.5, 20 mM MgCl2, 0.015% Brij-35, 4 mM DTT, 5 μM ATP and 1.5 μM peptide substrate (FITC-AHA-AKRRRLSSLRA-OH). Compounds were dissolved in DMSO so that the final concentration of DMSO was <2%, and the reaction was initiated with Rho kinase variants. After incubation, the reaction was terminated by the addition of EDTA and the phosphorylated and non-phosphorylated peptides separated using a LABCHIP® 3000 Reader (Caliper Life Sciences). […] Compounds were tested in dose-response format, and the inhibition of kinase activity was calculated at each concentration of compound. The inhibition data were fit using a curve-fitting program to determine the IC50; i.e., the concentration of compound required to inhibit 50% of kinase activity.
Representative Examples were tested in the ROCK2 assay described above and found having ROCK2 inhibitory activity. The ranges of the ROCK2 IC50 values are as follows: ROCK2 IC50: ++++(<10 nM)+++(10-100 nM)++(100-500 nM)+(500-2000 nM)

Chain of ROCK2 (O75116 whole entry, species assumed): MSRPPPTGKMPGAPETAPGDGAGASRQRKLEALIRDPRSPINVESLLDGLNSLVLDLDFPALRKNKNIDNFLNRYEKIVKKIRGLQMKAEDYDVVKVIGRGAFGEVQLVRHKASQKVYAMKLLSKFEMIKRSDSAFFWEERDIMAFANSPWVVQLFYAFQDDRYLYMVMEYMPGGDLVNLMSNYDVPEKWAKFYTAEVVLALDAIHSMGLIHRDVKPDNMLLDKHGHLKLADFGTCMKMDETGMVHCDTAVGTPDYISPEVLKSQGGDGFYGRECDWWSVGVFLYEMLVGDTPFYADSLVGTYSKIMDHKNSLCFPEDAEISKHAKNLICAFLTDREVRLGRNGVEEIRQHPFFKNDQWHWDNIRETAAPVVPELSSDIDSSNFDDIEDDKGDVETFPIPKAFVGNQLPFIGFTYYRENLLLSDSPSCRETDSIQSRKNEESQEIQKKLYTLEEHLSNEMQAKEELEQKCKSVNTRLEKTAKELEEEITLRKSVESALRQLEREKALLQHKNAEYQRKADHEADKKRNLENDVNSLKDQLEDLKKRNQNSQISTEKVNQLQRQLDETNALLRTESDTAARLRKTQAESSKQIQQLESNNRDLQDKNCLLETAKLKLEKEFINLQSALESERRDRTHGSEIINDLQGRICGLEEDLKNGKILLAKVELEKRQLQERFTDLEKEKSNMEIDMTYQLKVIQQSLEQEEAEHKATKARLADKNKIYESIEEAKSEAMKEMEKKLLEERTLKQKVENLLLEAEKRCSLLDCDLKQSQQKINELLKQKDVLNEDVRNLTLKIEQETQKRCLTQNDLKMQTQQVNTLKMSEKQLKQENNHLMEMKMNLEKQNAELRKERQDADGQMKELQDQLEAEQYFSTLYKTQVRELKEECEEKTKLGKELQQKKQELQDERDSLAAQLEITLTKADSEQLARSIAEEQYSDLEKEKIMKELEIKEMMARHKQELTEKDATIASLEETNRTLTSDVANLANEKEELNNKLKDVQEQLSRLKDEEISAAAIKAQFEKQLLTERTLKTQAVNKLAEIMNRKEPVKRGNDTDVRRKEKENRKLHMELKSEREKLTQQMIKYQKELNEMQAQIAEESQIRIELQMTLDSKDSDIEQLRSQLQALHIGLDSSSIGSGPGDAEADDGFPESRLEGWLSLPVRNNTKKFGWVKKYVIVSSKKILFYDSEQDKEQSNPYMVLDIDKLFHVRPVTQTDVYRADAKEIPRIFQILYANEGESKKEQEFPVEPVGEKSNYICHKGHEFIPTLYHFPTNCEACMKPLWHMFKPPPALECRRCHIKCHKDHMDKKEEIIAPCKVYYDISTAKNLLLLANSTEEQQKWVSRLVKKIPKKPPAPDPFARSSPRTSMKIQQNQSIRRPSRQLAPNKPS

In the case of `C[C@@H](N)[C@H]1CC[C@H](C(=O)Nc2ccncc2)CC1` [Example Y-27632, Y-27632], the blood pressure entry in experiment [1] (control rats) is “only a minor effect”; in experiment [1] (three rat models of hypertension), “significantly decrease”. The neointimal formation entry in the experiment with neointimal formation is “inhibited”. The “ventricular hypertrophy, fibrosis and function” value in experiment [2] was “improve”.
For `O=S(=O)(c1cccc2cnccc12)N1CCCNCC1` [fasudil], in experiment [3], the coronary constrictive remodeling result is listed as “promote a regression” and the coronary stenosis result is recorded as “progressively reduce”. Also, in the experiment on rat stroke model, the infarct size entry is reported as “reduce” and the neurologic deficit result is recorded as “reduce”.
As for `O=C1N(Cc2cc(F)cc(F)c2)CCN1c1ccc2c(n1)OCc1n[nH]cc1-2` [Example 21, 1-(3,5-difluorobenzyl)-3-(2,4-dihydropyrazolo[4′,3′:4,5]pyrano[2,3-b]pyridin-7-yl)imidazolidin-2-one], on ROCK2, the negative-log IC50 (pIC50) is 7.00 to 8.00.
